Laboratory results from US20160022751A1, “NOVEL COMPOSITION FOR TREATING ALZHEIMER'S DISEASE AND IMPROVING COGNITIVE FUNCTION OF ALZHEIMER'S PATIENTS” (GANGNEUNG-WONJU NATIONAL UNIVERSITY INDUSTRY ACADEMY …, priority 2014, published 2016).

Columns and labels:
[1] = test system: VAChT; experiment: VAChT mRNA expression in N2a cells (RT-PCR); type: cell-based, mouse; conditions: single ginsenoside (FIG. 7B)
Excerpt: (§1) The present inventor reported that ChAT overexpressing human neural stem cells restored cognition with an increase of ACh levels in rat model (Park et al., Exp. Neurol., 234: 521-526, 2012). This implies that the increase of the ChAT level in cholinergic neurons plays a critical role in cognition enhancement and thus the cholinergic gene locus “VAChT/ChAT” can be a putative target for therapeutic approaches on AD. Thus the present inventor prepared transfected Neuro-2a (N2a) cells that over-express the human ChAT and APP (designated as “N2a.hChAT” and “N2a.hAPPswe”, respectively, FIG. 6) and the N2a.hChAT and N2a.hAPPswe cells were treated with the faction groups 1 to 5 isolated in the Example 3 at a centration of 50 μg/ml. Neuro-2a mouse neuroblastoma cells (Korean Cell Line Bank, Korea) were grown in DMEM supplemented with 10% fetal bovine serum (FBS), 100 U/m penicillin, and 100 μg/ml streptomycin (Invitrogen, USA) under 5% CO2 at 37° C. in tissue culture flasks. For all experiments, cells were grown to greater than 90% confluency and subjected to no more than 20 cell passages. The medium was changed every 2-3 days. Subconfluent cells were harvested and seeded at a density of 5×10^5 cells or 5×10^6 cells in poly-L-lysine-coated 35 mm or 60 mm culture plates. To recover the cells that are not completely saturated for analysis, poly-L-lysine coated 35 mm or 60 mm culture was seeded at a concentration of 5×10^5 or 5×10^6 cells on the plates. The extent of expression of hChAT and APP in the N2a.hChAT and N2a.hAAPswe cells treated with the faction groups 1 to 5 was quantified with RT-PCR using primers described in the below Table 2. At this time, beta-actin was used as an internal control.
(§2) Specifically, total RNA extracts from N2a cells were prepared using the Trizol method (Invitrogen, USA) and cDNA was synthesized from RNA by reverse transcription of 1 μg of total RNA using a reverse transcription system (Improm-II, Promega, USA) and oligo dT primers in a total volume of 20 μL. PCR amplification was performed using the primers described in Table 2 (Bioneer, Korea). Quantitative real-time PCR reactions were run on a Rotor-Gene 6000 (Corbett Research, Australia) using SensiMix™ SYBR Hi-ROX Kit (Bioline, U.K.) in 20 μL reaction mixtures. Each real-time-PCR master mix contained 10 μL 2× enzyme master mix, 7.0 μL RNase free water, 1 μL of each primer (10 pM each), and 1 μL diluted template. The PCR was performed with an initial pre-incubation step for 15 min at 95° C., followed by 45 cycles of 95° C. for 15 s, annealing at 52° C. for 15 s, and extension at 72° C. for 10 s. Melting curve analysis was used to confirm formation of the expected PCR product, and products from all assays were additionally tested with 1.2% agarose gel electrophoresis to confirm the correct lengths. An inter-run calibrator was used, and a standard curve was created for each gene to obtain PCR efficiencies. Relative sample expression levels were calculated using Rotor-Gene 6000 Series Software 1.7, and were expressed relative to β-actin and corrected for between-run variability. Data for the experimental samples were expressed as a fold unit the internal control gene.
(§3) In order to examine whether five ginsenosides affect the expression of ChAT related to the synthesis of acetylcholine and VAChT controlling extracellular secretion of acetylcholine, the present inventor analyzed the expression level of ChAT and VAChT after treating the five ginsenosides to N2a […] cells, respectively.

[2] = test system: ChAT; experiment: ChAT mRNA expression in N2a cells (RT-PCR); type: cell-based, mouse; conditions: single ginsenoside (FIG. 7A)
Excerpt: as §1, §2, §3

[3] = test system: acetylcholine; conditions: Benishin et al., Pharmacol., 42: 223-229, 1991; cited from earlier work

SMILES	expression of VAChT mRNA [1]	expression of ChAT mRNA [2]	release of acetylcholine (ACh) from hippocampal slices [3]
CC(C)=CCC[C@](C)(O[C@@H]1O[C@H](CO[C@@H]2O[C@H](CO)[C@@H](O)[C@H](O)[C@H]2O)[C@@H](O)[C@H](O)[C@H]1O)[C@H]1CC[C@]2(C)[C@@H]1[C@H](O)C[C@@H]1[C@@]3(C)CC[C@H](O[C@@H]4O[C@H](CO)[C@@H](O)[C@H](O)[C@H]4O[C@@H]4O[C@H](CO)[C@@H](O)[C@H](O)[C@H]4O)C(C)(C)[C@@H]3CC[C@]12C [ginsenoside Rb1]	no significant increase	no significant increase	facilitate the release of acetylcholine
CC(C)=CCC[C@](C)(O[C@@H]1O[C@H](CO)[C@@H](O)[C@H](O)[C@H]1O)[C@H]1CC[C@]2(C)[C@@H]1[C@H](O)C[C@@H]1[C@@]3(C)CC[C@H](O)C(C)(C)[C@@H]3[C@@H](O[C@@H]3O[C@H](CO)[C@@H](O)[C@H](O)[C@H]3O)C[C@]12C [ginsenoside Rg1]	no significant increase	no significant increase	
